Entries after “also recorded” stand apart in the source; their conditions may differ.
Experiments:
bovine cornea epithelium = assay: Corneal integrity: fluorescence microscopy of DAPI-stained cornea sections after exposure; conditions: chelator 1 mg mL^−1 in PBS pH 7.4 ± 0.2, 3 h exposure; PBS shows no disruption
Method: A Franz diffusion cell donor chamber was placed on the cornea as a means to contain the dose; the setup was wrapped in cling-film ensuring a good seal between the donor chamber and the cornea; these were placed in a water bath at 34 ± 1 °C. Individual eyes were exposed to PBS or solutions of EDTA, EGTA or EDDS at 1 mg mL^−1 in PBS, all at pH 7.4 ± 0.2 by placing 1 mL solution onto the cornea.
From the above experiment, corneas were dissected after exposure, and sections were prepared for microscopy by setting cornea segments in OCT, quick freezing on dry ice and subsequent sectioning. […] Specimens were stained using Vectashield with DAPI mounting medium, and a glass coverslip applied. All cornea sections were examined within seven days of preparation using an AXIOCAM MRm 1.3 MP digital camera attached to a Zeiss AXIO Imager A1 fluorescent microscope, using AXIO Vs 40 V.4.8.2.0 software (Zeiss, Oberkochen, Germany). A 10× magnification eyepiece together with a 5× magnification objective lens was employed, and DAPI fluorescence filter was selected.

bovine cornea [1] = assay: Transepithelial electrical resistance (TEER) of cornea in Ussing chambers; conditions: chelator 1 mg mL^−1 in PBS in donor chamber, 120 min, 34 °C, baseline deducted; initial 2.28 ± 0.06, PBS control 1.93 ± 0.04
bovine cornea [2] = assay: Whole eye experiment: Ca^2+ extraction from cornea, analysed by atomic absorption spectrometry; conditions: chelator 1 mg mL^−1 in PBS pH 7.4 ± 0.2, 3 h exposure of whole bovine eye cornea, 34 °C, n = 3; PBS alone 54.67 ± 7.04 ppm
Method: Calcium ion analysis was conducted using a novAA 350 system with […] software, version 4.5.0 (Analytik JENA, Germany). […] Quantitation achieved by reference to a calibration curve produced from Ca^2+ standards in ultrapure water incorporating 5% w/v lanthanum chloride as a releasing agent.

[3] = Corneal permeability of riboflavin in Franz diffusion cells; format: in vitro ADME, bovine; design: Steady-state flux of riboflavin / Papp at 240 min: dose or concentration left out as unconfirmed; conditions: bovine, pH 7.4
Method: (§1) Analysis was conducted using a PerkinElmer series 200 HPLC system comprising of 785 A UV-vis detector, series 200 quaternary pump and series 200 autosampler (PerkinElmer Inc., UK), Hamilton PRP-1 reversed phase column, 150 mm × 4.1 mm, 10 μm (part number: 79425) and data acquisition software ([…], version 4.09, SRI Inc., USA). […] Bovine corneas were mounted in Franz diffusion cells (FDC), epithelium side facing the donor compartment. The receiver compartment was filled with pre-warmed and degassed PBS (16.5 mL). […] Riboflavin is known to be photodegradable ([Terekhova et al., 2011]), therefore the whole experiment was shielded with aluminium foil. Sink conditions were employed with 0.4 mL aliquots taken every 60 min for 240 min. HPLC analysis was carried out immediately after all samples had been collected to avoid drug degradation.

bovine cornea [4] = assay: as above; format: in vitro ADME; design: Steady-state flux of riboflavin / Papp at 240 min: dose or concentration left out as unconfirmed
Method: as §1

bovine cornea [5] = assay: Cornea extracts: riboflavin absorbed into cornea, ethanol extraction and HPLC; format: in vitro ADME; conditions: n = 3; for Riboflavin pg mg^−1 cornea: riboflavin in PBS pH 7.4 ± 0.2 without chelator
Method: Analysis was conducted using a PerkinElmer series 200 HPLC system comprising of 785 A UV–vis detector, series 200 quaternary pump and series 200 autosampler (PerkinElmer Inc., UK), Hamilton PRP-1 reversed phase column, 150 mm × 4.1 mm, 10 μm (part number: 79425) and data acquisition software (Peaksimple, version 4.09, SRI Inc., USA). […] Isocratic conditions were used at 25 °C with the mobile phase comprising of 20% ethanol and 80% ion-pair buffer, flow rate 0.8 mL min^−1, 10 μL injection volume, UV detector at 267 nm corresponding to riboflavin absorption λmax, a retention time of 3.05 min. Quantitation was achieved by reference to a calibration curve produced from riboflavin standards in PBS, pH 7.4 ± 0.2 at concentrations ranging from 0.01 to 25 μg mL^−1 (r^2 = 0.9996).
Corneas from the riboflavin permeability experiment were trimmed of sclera, gently blotted with tissue paper, weighed and placed in glass vials to which 5 mL absolute ethanol was added to extract absorbed riboflavin. Differences in its accumulation within the corneas between different solutions were compared. The vials were stored at room temperature shielded from light for three days. From these vials, 1 mL of extract solvent was centrifuged at 10,000 rpm for 10 min, and the supernatant transferred to autosample vials for HPLC analysis.

Papp at 240 min [3] [×10⁻⁶ cm/s]	concentration of riboflavin in the receiving solution at 240 min (bovine cornea [4]; riboflavin 0.1 mg mL^−1 in PBS pH 7.4 without chelator, 34 °C) [ng/mL]	Steady-state flux of riboflavin (bovine cornea [4]; riboflavin solution in PBS without chelator) [µmol/min]	mean amount of riboflavin extracted from cornea (bovine cornea [5]; corneas after permeability experiment, riboflavin 0.1 mg mL^−1 in PBS without chelator) [ng]	Riboflavin pg mg^−1 cornea (bovine cornea [5]) [pg/mg]	Riboflavin pg mg^−1 cornea (bovine cornea [5]; listed as riboflavin) [pg/mg]	Compound	histological changes of corneal epithelium (bovine cornea epithelium)	TEER value after 2 h (bovine cornea [1]) [kΩ cm^2]	calcium sequestering performance from bovine cornea (Ca^2+ concentration in solution) (bovine cornea [2]) [ppm]
–	–	–	–	–	–	O=C(O)CC(NCCNC(CC(=O)O)C(=O)O)C(=O)O (stereo not drawn) [EDDS, ethylenediamine-N,N′-disuccinic acid]	some swelling with voids throughout this layer	1.62 ± 0.04	87.60 ± 3.30
–	–	–	–	–	–	O=C(O)CN(CCN(CC(=O)O)CC(=O)O)CC(=O)O [EDTA, Ethylenediaminetetraacetic acid]	some swelling with voids throughout this layer; also recorded: perforation seems to penetrate the whole of the epithelium	1.38 ± 0.03	98.97 ± 9.86
–	–	–	–	–	–	O=C(O)CN(CCOCCOCCN(CC(=O)O)CC(=O)O)CC(=O)O [EGTA, ethylene glycol-bis(2-aminoethylether)-N,N,N′,N′-tetraacetic acid]	intense disruption to the superficial epithelial layers and a relatively undisturbed basal layer	1.42 ± 0.02	119.57 ± 27.28
1940 ± 325	5.74 ± 0.96	0.0478 ± 0.0080	50.41 ± 2.80	62.46 ± 0.98	62.46	Cc1cc2nc3c(=O)[nH]c(=O)nc-3n(C[C@H](O)[C@H](O)[C@H](O)CO)c2cc1C [Riboflavin, riboflavin]	–	–	–

From publication PMC4111866, “Enhancement in corneal permeability of riboflavin using calcium sequestering compounds” (International Journal of Pharmaceutics, 2014)
